Tested on: GM1 production in Jurkat cells
Test: cells
Format: cell-based
Details: Homo sapiens, Jurkat, 72 h

| SMILES | IC50 [nM] |
| --- | --- |
| O=C(NC1CCc2cc(-c3cc(Cl)cc(Cl)c3)ccc21)O[C@@H]1CN2CCC1CC2 (stereo partly drawn) [Example 22, (S)-quinuclidin-3-yl (5-(3,5-dichlorophenyl)-2,3-dihydro-1H-inden-1-yl)carbamate] | 89.6 |
| CC1(C)Cc2ccc(-c3ccccc3C(F)(F)F)cc2C1NC(=O)O[C@@H]1CN2CCC1CC2 (stereo partly drawn) [Example 59, (S)-quinuclidin-3-yl (2,2-dimethyl-6-(2-(trifluoromethyl)phenyl)-2,3-dihydro-1H-inden-1-yl)carbamate] | 164 |
| CC1(C)Cc2cc(-c3cc4ccccc4s3)ccc2C1NC(=O)O[C@@H]1CN2CCC1CC2 (stereo partly drawn) [Example 186, (S)-quinuclidin-3-yl (5-(benzo[b]thiophen-2-yl)-2,2-dimethyl-2,3-dihydro-1H-inden-1-yl)carbamate] | 82.6 |
| CCCc1ccc(-c2cc3c(cc2OC)C(NC(=O)O[C@@H]2CN4CCC2CC4)C(C)(C)C3)cc1 (stereo partly drawn) [Example 313, (S)-quinuclidin-3-yl (6-methoxy-2,2-dimethyl-5-(4-propylphenyl)-2,3-dihydro-1H-inden-1-yl)carbamate] | 7.3 |
| CCOc1ccc(-c2ccc3c(c2)CC(C)(C)C3NC(=O)O[C@@H]2CN3CCC2CC3)cc1 (stereo partly drawn) [Example 160, (S)-quinuclidin-3-yl (5-(4-ethoxyphenyl)-2,2-dimethyl-2,3-dihydro-1H-inden-1-yl)carbamate] | 22.7 |
| CC(C)Oc1ccc(-c2ccc3c(c2)CC(C)(C)C3NC(=O)O[C@@H]2CN3CCC2CC3)cc1F (stereo partly drawn) [Example 209, (S)-quinuclidin-3-yl (5-(3-fluoro-4-isopropoxyphenyl)-2,2-dimethyl-2,3-dihydro-1H-inden-1-yl)carbamate] | 32.1 |
| O=C(NC1CCc2ccc(-c3ccc(F)c(F)c3F)cc21)O[C@@H]1CN2CCC1CC2 (stereo partly drawn) [Example 45, (S)-quinuclidin-3-yl (6-(2,3,4-trifluorophenyl)-2,3-dihydro-1H-inden-1-yl)carbamate] | 57.3 |
| COc1ccc(-c2ccc3c(c2)CC(C)(C)C3NC(=O)O[C@@H]2CN3CCC2CC3)cc1 (stereo partly drawn) [Example 159, (S)-quinuclidin-3-yl (5-(4-methoxyphenyl)-2,2-dimethyl-2,3-dihydro-1H-inden-1-yl)carbamate] | 12.7 |
| O=C(NC1CCc2ccc(-c3ccc(F)cc3)cc21)O[C@@H]1CN2CCC1CC2 (stereo partly drawn) [Example 25, (S)-quinuclidin-3-yl (6-(4-fluorophenyl)-2,3-dihydro-1H-inden-1-yl)carbamate] | 106 |
| CC1(C)CC(NC(=O)O[C@@H]2CN3CCC2CC3)c2ccc(-c3ccccc3OC(F)(F)F)cc21 (stereo partly drawn) [Example 403, (S)-quinuclidin-3-yl (3,3-dimethyl-5-(2-(trifluoromethoxy)phenyl)-2,3-dihydro-1H-inden-1-yl)carbamate] | 85.3 |
| COc1ccc(Cl)cc1-c1ccc2c(c1)CC(C)(C)C2NC(=O)O[C@@H]1CN2CCC1CC2 (stereo partly drawn) [Example 210, (S)-quinuclidin-3-yl (5-(5-chloro-2-methoxyphenyl)-2,2-dimethyl-2,3-dihydro-1H-inden-1-yl)carbamate] | 7.5 |
| O=C(NC1CCc2cc(-c3ccccc3F)ccc21)O[C@@H]1CN2CCC1CC2 (stereo partly drawn) [Example 9, (S)-quinuclidin-3-yl (5-(2-fluorophenyl)-2,3-dihydro-1H-inden-1-yl)carbamate] | 93.1 |
| COc1ccc(OC)c(-c2cc3c(cc2F)C(NC(=O)O[C@@H]2CN4CCC2CC4)C(C)(C)C3)c1 (stereo partly drawn) [Example 382, (S)-quinuclidin-3-yl (5-(2,5-dimethoxyphenyl)-6-fluoro-2,2-dimethyl-2,3-dihydro-1H-inden-1-yl)carbamate] | 31.3 |
| O=C(NC1CCc2ccc(-c3cc(Cl)cc(Cl)c3)cc21)O[C@@H]1CN2CCC1CC2 (stereo partly drawn) [Example 48, (S)-quinuclidin-3-yl (6-(3,5-dichlorophenyl)-2,3-dihydro-1H-inden-1-yl)carbamate] | 65.7 |
| CCOc1ccc(-c2cc3c(cc2OC)C(NC(=O)O[C@@H]2CN4CCC2CC4)C(C)(C)C3)cc1F (stereo partly drawn) [Example 347, (S)-quinuclidin-3-yl (5-(4-ethoxy-3-fluorophenyl)-6-methoxy-2,2-dimethyl-2,3-dihydro-1H-inden-1-yl)carbamate] | 46.8 |
| COc1cc(OC)cc(-c2cc3c(cc2F)C(NC(=O)O[C@@H]2CN4CCC2CC4)C(C)(C)C3)c1 (stereo partly drawn) [Example 384, (S)-quinuclidin-3-yl (5-(3,5-dimethoxyphenyl)-6-fluoro-2,2-dimethyl-2,3-dihydro-1H-inden-1-yl)carbamate] | 83.2 |
| CC1(C)Cc2cc(-c3ccc(C(F)(F)F)cc3F)ccc2C1NC(=O)O[C@@H]1CN2CCC1CC2 (stereo partly drawn) [Example 229, (S)-quinuclidin-3-yl (5-(2-fluoro-4-(trifluoromethyl)phenyl)-2,2-dimethyl-2,3-dihydro-1H-inden-1-yl)carbamate] | 56.2 |
| CC(C)(C)OCc1ccc(-c2ccc3c(c2)CC(C)(C)C3NC(=O)O[C@@H]2CN3CCC2CC3)cc1 (stereo partly drawn) [Example 181, (S)-quinuclidin-3-yl (5-(4-(tert-butoxymethyl)phenyl)-2,2-dimethyl-2,3-dihydro-1H-inden-1-yl)carbamate] | 5.5 |

| SMILES | IC50 [nM] |
| --- | --- |
| COc1cc(OC)cc(-c2cc3c(cc2OC)C(NC(=O)O[C@@H]2CN4CCC2CC4)C(C)(C)C3)c1 (stereo partly drawn) [Example 345, (S)-quinuclidin-3-yl (5-(3,5-dimethoxyphenyl)-6-methoxy-2,2-dimethyl-2,3-dihydro-1H-inden-1-yl)carbamate] | 45.7 |
| COc1ccnc(OC)c1-c1ccc2c(c1)CC(C)(C)C2NC(=O)O[C@@H]1CN2CCC1CC2 (stereo partly drawn) [Example 271, (S)-quinuclidin-3-yl (5-(2,4-dimethoxypyridin-3-yl)-2,2-dimethyl-2,3-dihydro-1H-inden-1-yl)carbamate] | 30.6 |
| CC1(C)Cc2cc(-c3ccc4c(c3)OCCO4)ccc2C1NC(=O)O[C@@H]1CN2CCC1CC2 (stereo partly drawn) [Example 112, (S)-quinuclidin-3-yl (5-(2,3-dihydrobenzo[b][1,4]dioxin-6-yl)-2,2-dimethyl-2,3-dihydro-1H-inden-1-yl)carbamate] | 35.6 |
| CC(C)COc1ccc(-c2ccc3c(c2)CC(C)(C)C3NC(=O)O[C@@H]2CN3CCC2CC3)cc1 (stereo partly drawn) [Example 136, (S)-quinuclidin-3-yl (5-(4-isobutoxyphenyl)-2,2-dimethyl-2,3-dihydro-1H-inden-1-yl)carbamate] | 1.7 |
| O=C(NC1CCc2cc(-c3cc(F)ccc3F)ccc21)O[C@@H]1CN2CCC1CC2 (stereo partly drawn) [Example 18, (S)-quinuclidin-3-yl (5-(2,5-difluorophenyl)-2,3-dihydro-1H-inden-1-yl)carbamate] | 31.6 |
| CC(C)Oc1ccc(-c2ccc3c(c2)CC(C)(C)C3NC(=O)O[C@@H]2CN3CCC2CC3)cc1 (stereo partly drawn) [Example 144, (S)-quinuclidin-3-yl (5-(4-isopropoxyphenyl)-2,2-dimethyl-2,3-dihydro-1H-inden-1-yl)carbamate] | 6.2 |
| Cc1ccc(-c2ccc3c(c2)CCC3NC(=O)O[C@@H]2CN3CCC2CC3)cc1 (stereo partly drawn) [Example 13, (S)-quinuclidin-3-yl (5-(p-tolyl)-2,3-dihydro-1H-inden-1-yl)carbamate] | 41.7 |
| CC1(C)Cc2cc(/C=C/c3cccc(F)c3)ccc2C1NC(=O)O[C@@H]1CN2CCC1CC2 (stereo partly drawn) [Example 273, (S)-quinuclidin-3-yl (5-((E)-3-fluorostyryl)-2,2-dimethyl-2,3-dihydro-1H-inden-1-yl)carbamate] | 13.4 |
| CC1(C)Cc2ccc(-c3cccc(F)c3)cc2C1NC(=O)O[C@@H]1CN2CCC1CC2 (stereo partly drawn) [Example 53, (S)-quinuclidin-3-yl (6-(3-fluorophenyl)-2,2-dimethyl-2,3-dihydro-1H-inden-1-yl)carbamate] | 80 |
| CCC1(CC)Cc2cc(-c3c(OC)cccc3OC)ccc2C1NC(=O)O[C@@H]1CN2CCC1CC2 (stereo partly drawn) [Example 300, (S)-quinuclidin-3-yl (5-(2,6-dimethoxyphenyl)-2,2-diethyl-2,3-dihydro-1H-inden-1-yl)carbamate] | 23 |
| COc1cc2c(cc1-c1cccc(F)c1)CC(C)(C)C2NC(=O)O[C@@H]1CN2CCC1CC2 (stereo partly drawn) [Example 333, (S)-quinuclidin-3-yl (5-(3-fluorophenyl)-6-methoxy-2,2-dimethyl-2,3-dihydro-1H-inden-1-yl)carbamate] | 45 |
| CCOc1cccc(-c2cc3c(cc2OC)C(NC(=O)O[C@@H]2CN4CCC2CC4)C(C)(C)C3)c1 (stereo partly drawn) [Example 339, (S)-quinuclidin-3-yl (5-(3-ethoxyphenyl)-6-methoxy-2,2-dimethyl-2,3-dihydro-1H-inden-1-yl)carbamate] | 62.5 |
| CC(C)Oc1ccc(-c2ccc3c(c2)CC(C)(C)C3NC(=O)O[C@@H]2CN3CCC2CC3)cn1 (stereo partly drawn) [Example 196, (S)-quinuclidin-3-yl (5-(6-isopropoxypyridin-3-yl)-2,2-dimethyl-2,3-dihydro-1H-inden-1-yl)carbamate] | 23.2 |
| COc1ccc(-c2ccc3c(c2)CC(C)(C)C3NC(=O)O[C@@H]2CN3CCC2CC3)c(Cl)c1Cl (stereo partly drawn) [Example 126, (S)-quinuclidin-3-yl (5-(2,3-dichloro-4-methoxyphenyl)-2,2-dimethyl-2,3-dihydro-1H-inden-1-yl)carbamate] | 50.5 |
| CC1(C)Cc2cc(-c3ccc(C(F)(F)F)cc3Cl)ccc2C1NC(=O)O[C@@H]1CN2CCC1CC2 (stereo partly drawn) [Example 183, (S)-quinuclidin-3-yl (5-(2-chloro-4-(trifluoromethyl)phenyl)-2,2-dimethyl-2,3-dihydro-1H-inden-1-yl)carbamate] | 18.6 |
| CC1(C)Cc2cc(-c3cccc(OCCN4CCOCC4)c3)ccc2C1NC(=O)O[C@@H]1CN2CCC1CC2 (stereo partly drawn) [Example 114, (S)-quinuclidin-3-yl (2,2-dimethyl-5-(3-(2-morpholinoethoxy)phenyl)-2,3-dihydro-1H-inden-1-yl)carbamate] | 33.7 |
| O=C(NC1CCc2cc(-c3cc(F)cc(F)c3)ccc21)O[C@@H]1CN2CCC1CC2 (stereo partly drawn) [Example 19, (S)-quinuclidin-3-yl (5-(3,5-difluorophenyl)-2,3-dihydro-1H-inden-1-yl)carbamate] | 20.3 |
| CC1(C)Cc2cc(-c3ccc(OCC(F)F)cc3)ccc2C1NC(=O)O[C@@H]1CN2CCC1CC2 (stereo partly drawn) [Example 150, (S)-quinuclidin-3-yl (5-(4-(2,2-difluoroethoxy)phenyl)-2,2-dimethyl-2,3-dihydro-1H-inden-1-yl)carbamate] | 6.8 |
